Results reported in article PMC6520475 (European Journal of Drug Metabolism and Pharmacokinetics, 2018).

Experiments:
[1] = general statement, no reference given; cited from earlier work
[2] = cited from earlier work
[3] = Population pharmacokinetic; conditions: base model without covariates

In the case of `CN[C@H](CC(C)C)C(=O)N[C@H]1C(=O)N[C@@H](CC(N)=O)C(=O)N[C@H]2C(=O)N[C@H]3C(=O)N[C@H](C(=O)N[C@H](C(=O)O)c4cc(O)cc(O)c4-c4cc3ccc4O)[C@H](O)c3ccc(c(Cl)c3)Oc3cc2cc(c3O[C@@H]2O[C@H](CO)[C@@H](O)[C@H](O)[C@H]2O[C@H]2C[C@](C)(N)[C@H](O)[C@H](C)O2)Oc2ccc(cc2Cl)[C@H]1O` [vancomycin], the “Fraction of vancomycin excreted through the kidney” value [1] is given as 90%, the “Vd, PopPK model” value ([2]; Adult Chinese patients, n = 72, 1-compartment model, ref 7 (Deng)) is given as 47.76 L and the “V2, PopPK model” value ([2]; Adult Gram-positive bacterial infection in ICU, n = 103, ref 25 (Weng Fangjuan)) is given as 44.2 L. The “CL, PopPK model” value ([2]; MRSA infectors, n = 76, 1-compartment model, ref 11 (Leu)) was “CLCR”, the “θ1CL, population typical value of CL, base model” value [3] was 2.47 L/h and the “θ2Vd, population typical value of Vd, base model” value [3] was 142 L.
